From ChEMBL document CHEMBL4359905, “Discovery, structural insight, and bioactivities of BY27 as a selective inhibitor of the second bromodomains of BET proteins” (Eur J Med Chem, 2019)

Columns and labels:
[1] = Toxicity in BALB/c nu/nu mouse xenografted with human MV4-11 cells assessed as decrease in body weight at 60 mg/kg, po via gavage once daily for 6 days and measured every 2 to 3 days relative to control; type: organism-based; design: scale not given: the % may be the effect or the level left; settings: in vivo
[2] = target: T1, Bromodomain-containing protein 2 (Homo sapiens, UniProt P25440); assay: Selectivity ratio of Kd for human partial length BRD2 BD1 isoform 1 (K71 to N194 residues) expressed in bacterial expression system to Kd for human partial length BRD2 BD2 isoform 1 (E348 to D455 residues) expressed in bacterial expression system
Target sequence in this assay (P25440 whole entry, looked up, the tested form may be a part, canonical isoform): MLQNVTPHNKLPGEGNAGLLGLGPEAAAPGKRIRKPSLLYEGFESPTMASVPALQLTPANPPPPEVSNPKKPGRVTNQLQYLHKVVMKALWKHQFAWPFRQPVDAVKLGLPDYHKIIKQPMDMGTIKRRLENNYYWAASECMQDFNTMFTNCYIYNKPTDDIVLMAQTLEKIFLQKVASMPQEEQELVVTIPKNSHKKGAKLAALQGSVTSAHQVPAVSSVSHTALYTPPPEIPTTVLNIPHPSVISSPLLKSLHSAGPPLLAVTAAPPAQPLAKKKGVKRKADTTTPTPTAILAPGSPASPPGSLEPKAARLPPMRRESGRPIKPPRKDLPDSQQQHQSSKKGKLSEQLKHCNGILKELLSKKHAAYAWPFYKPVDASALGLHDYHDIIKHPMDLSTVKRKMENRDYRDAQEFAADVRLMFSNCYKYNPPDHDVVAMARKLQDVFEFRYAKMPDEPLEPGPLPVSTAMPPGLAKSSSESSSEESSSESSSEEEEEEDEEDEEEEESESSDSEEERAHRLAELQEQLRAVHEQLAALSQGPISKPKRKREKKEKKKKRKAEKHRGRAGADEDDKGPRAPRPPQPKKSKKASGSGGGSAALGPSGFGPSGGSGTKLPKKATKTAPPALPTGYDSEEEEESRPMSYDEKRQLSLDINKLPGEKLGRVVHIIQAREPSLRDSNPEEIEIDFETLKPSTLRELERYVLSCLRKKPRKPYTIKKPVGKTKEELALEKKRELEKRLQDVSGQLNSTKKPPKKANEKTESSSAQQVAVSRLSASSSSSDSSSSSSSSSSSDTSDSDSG

[3] = target: T2, Bromodomain-containing protein 4 (Homo sapiens, UniProt O60885); assay: Binding affinity to human recombinant BRD4 BD1 (44 to 168 residues) by fluorescence polarization assay
MV4-11 [4] = assay: Upregulation of p21 mRNA expression in human MV4-11 cells after 24 hrs by qRT-PCR analysis; type: functional, cell-based
[5] = target: T2, Bromodomain-containing protein 4; assay: Binding affinity to human recombinant BRD4 BD2 (333 to 460 residues) by fluorescence polarization assay
[6] = target: T2, Bromodomain-containing protein 4; assay: Binding affinity to human partial length BRD4 BD2 isoform long (K333 to E460 residues) expressed in bacterial expression system by bromoscan assay
MV4-11 [7] = assay: Decrease in c-Myc protein expression in human MV4-11 cells incubated for 24 hrs by western blot analysis; type: functional, cell-based
[8] = target: T3, Bromodomain-containing protein 3 (Homo sapiens, UniProt Q15059); assay: Selectivity ratio of Kd for human partial length BRD3 BD1 (P24 to E144 residues) expressed in bacterial expression system to Kd for human partial length BRD3 BD2 (G306 to P416 residues) expressed in bacterial expression system
Target sequence in this assay (Q15059 2-726 limits assumed): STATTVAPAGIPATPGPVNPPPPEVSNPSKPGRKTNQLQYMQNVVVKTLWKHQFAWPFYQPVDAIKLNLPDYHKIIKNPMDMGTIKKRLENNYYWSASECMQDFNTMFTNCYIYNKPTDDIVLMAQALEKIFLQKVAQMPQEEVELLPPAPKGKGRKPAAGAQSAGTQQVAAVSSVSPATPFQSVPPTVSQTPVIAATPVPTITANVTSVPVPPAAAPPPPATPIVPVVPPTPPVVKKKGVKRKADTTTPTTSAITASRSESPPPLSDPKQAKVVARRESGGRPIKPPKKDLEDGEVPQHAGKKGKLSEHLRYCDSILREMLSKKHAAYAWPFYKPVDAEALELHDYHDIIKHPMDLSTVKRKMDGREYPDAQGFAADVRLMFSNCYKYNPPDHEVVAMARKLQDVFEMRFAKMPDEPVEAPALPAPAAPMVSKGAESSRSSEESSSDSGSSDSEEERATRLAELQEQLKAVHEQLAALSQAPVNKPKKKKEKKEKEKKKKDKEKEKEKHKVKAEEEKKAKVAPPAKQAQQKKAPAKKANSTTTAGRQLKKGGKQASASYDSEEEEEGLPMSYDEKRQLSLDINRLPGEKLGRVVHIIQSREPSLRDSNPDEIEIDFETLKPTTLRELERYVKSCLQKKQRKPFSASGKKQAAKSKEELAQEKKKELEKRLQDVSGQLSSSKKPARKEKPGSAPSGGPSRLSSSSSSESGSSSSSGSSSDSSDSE

MV4-11 [9] = assay: Antiproliferative activity against human MV4-11 cells assessed as cell growth inhibition after 4 days by CCK8 assay; type: functional, cell-based; settings: MV4-11, 96 h
[10] = target: T4, Bromodomain testis-specific protein (Homo sapiens, UniProt Q58F21); assay: Binding affinity to human partial length BRDT bromodomain 2 isoform b (K250 to E382 residues) expressed in bacterial expression system by bromoscan assay
MV4-11 [11] = assay: Antitumour activity against human MV4-11 cells xenografted in BALB/c nu/nu mouse assessed as tumour growth inhibition at 150 mg/kg, po via gavage administered once daily for 21 days and measured every 2 to 3 days by vernier caliper method relative to control; type: functional; settings: MV4-11, po, read-out: GI
MV4-11 [12] = assay: Downregulation of cMyc mRNA expression in human MV4-11 cells after 24 hrs by qRT-PCR analysis; type: functional, cell-based
[13] = target: T3, Bromodomain-containing protein 3; assay: Binding affinity to human recombinant BRD3 BD1 (24 to 144 residues) by fluorescence polarization assay
Target sequence in this assay (Q15059 whole entry, the tested form may be a part): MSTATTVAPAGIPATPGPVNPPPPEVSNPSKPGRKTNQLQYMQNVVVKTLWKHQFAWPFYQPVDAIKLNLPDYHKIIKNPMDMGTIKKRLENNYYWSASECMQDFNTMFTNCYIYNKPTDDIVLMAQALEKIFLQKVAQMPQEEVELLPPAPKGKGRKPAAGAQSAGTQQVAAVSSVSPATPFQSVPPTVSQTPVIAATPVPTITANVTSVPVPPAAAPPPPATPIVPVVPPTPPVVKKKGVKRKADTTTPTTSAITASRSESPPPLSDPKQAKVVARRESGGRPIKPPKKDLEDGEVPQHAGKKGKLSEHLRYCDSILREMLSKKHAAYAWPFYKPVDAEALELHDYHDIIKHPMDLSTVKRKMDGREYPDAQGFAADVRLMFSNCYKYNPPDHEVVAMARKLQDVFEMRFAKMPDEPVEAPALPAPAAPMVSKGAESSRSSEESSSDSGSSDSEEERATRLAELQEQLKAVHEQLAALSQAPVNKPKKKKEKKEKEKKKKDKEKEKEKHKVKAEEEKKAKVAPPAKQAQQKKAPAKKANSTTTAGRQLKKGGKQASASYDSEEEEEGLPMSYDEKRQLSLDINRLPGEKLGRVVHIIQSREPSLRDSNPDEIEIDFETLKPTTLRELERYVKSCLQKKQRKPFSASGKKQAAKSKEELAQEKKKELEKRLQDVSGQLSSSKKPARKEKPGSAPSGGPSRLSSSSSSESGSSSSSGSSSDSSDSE

[14] = Volume of distribution at steady state in ICR mouse at 5 mg/kg, iv measured upto 24 hrs by LC-MS/MS analysis; type: ADME, organism-based; settings: in vivo, read-out: Vdss
[15] = Half-life in ICR mouse at 15 mg/kg, po measured upto 24 hrs by LC-MS/MS analysis; type: ADME, organism-based; settings: in vivo
[16] = target: T4, Bromodomain testis-specific protein; assay: Binding affinity to human partial length BRDT bromodomain 1 isoform b (N21 to E137 residues) expressed in bacterial expression system by bromoscan assay
[17] = target: T1, Bromodomain-containing protein 2; assay: Binding affinity to human partial length BRD2 BD1 isoform 1 (K71 to N194 residues) expressed in bacterial expression system by bromoscan assay
Target sequence in this assay (P25440 whole entry, the tested form may be a part, canonical isoform): as the sequence (P25440 whole entry, looked up, the tested form may be a part, canonical isoform) above

MV4-11 [18] = assay: Antitumour activity against human MV4-11 cells xenografted in BALB/c nu/nu mouse assessed as downregulation of c-Myc expression level in tumor tissue at 150 mg/kg, po administered via gavage as a single dose measured after 6 hrs by western blot analysis; type: functional; settings: MV4-11, po
[19] = Cmax in ICR mouse at 5 mg/kg, iv measured upto 24 hrs by LC-MS/MS analysis; type: ADME, organism-based; design: dose 5 mg/kg, route intravenous; settings: in vivo
MV4-11 [20] = assay: Antitumour activity against human MV4-11 cells xenografted in BALB/c nu/nu mouse assessed as downregulation of c-Myc expression level in tumor tissue at 150 mg/kg, po administered via gavage as a single dose measured after 24 hrs by western blot analysis; type: functional; settings: MV4-11, po
HepG2 [21] = assay: Downregulation of G6PC in human HepG2 cells after 4 hrs by qRT-PCR analysis; type: functional, cell-based
[22] = target: T3, Bromodomain-containing protein 3; assay: Binding affinity to human partial length BRD3 BD1 (P24 to E144 residues) expressed in bacterial expression system by bromoscan assay
Target sequence in this assay (Q15059 whole entry, the tested form may be a part): as the sequence (Q15059 whole entry, the tested form may be a part) above

[23] = target: T1, Bromodomain-containing protein 2; assay: Binding affinity to human partial length BRD2 BD2 isoform 1 (E348 to D455 residues) expressed in bacterial expression system by bromoscan assay
Target sequence in this assay (P25440 whole entry, the tested form may be a part, canonical isoform): as the sequence (P25440 whole entry, looked up, the tested form may be a part, canonical isoform) above

MV4-11 [24] = assay: Antitumour activity against human MV4-11 cells xenografted in BALB/c nu/nu mouse assessed as tumour growth inhibition at 100 mg/kg, po via gavage administered once daily for 21 days and measured every 2 to 3 days by vernier caliper method relative to control; type: functional; settings: MV4-11, po, read-out: GI
[25] = AUC (0 to t) in ICR mouse at 15 mg/kg, po measured upto 24 hrs by LC-MS/MS analysis; type: ADME, organism-based; design: time < 24 hr, dose 15 mg/kg, route oral; settings: in vivo
[26] = Toxicity in BALB/c nu/nu mouse xenografted with human MV4-11 cells assessed as decrease in body weight at 150 mg/kg, po via gavage once daily for 21 days and measured every 2 to 3 days relative to control; type: organism-based; design: scale not given: the % may be the effect or the level left; settings: in vivo
[27] = target: T2, Bromodomain-containing protein 4; assay: Selectivity ratio of Kd for human partial length BRD4 BD1 isoform long (N44 to E168 residues) expressed in bacterial expression system to Kd for human partial length BRD4 BD2 isoform long (K333 to E460 residues) expressed in bacterial expression system
[28] = AUC (0 to t) in ICR mouse at 5 mg/kg, iv measured upto 24 hrs by LC-MS/MS analysis; type: ADME, organism-based; design: dose 5 mg/kg, time < 24 hr, route intravenous; settings: in vivo
MV4-11 [29] = assay: Downregulation of p21 expression level in tumor tissue in BALB/c nu/nu mouse xenografted with human MV4-11 cells at 150 mg/kg, po administered via gavage as a single dose measured after 24 hrs by western blot analysis; type: functional; settings: MV4-11, po
[30] = Cmax in ICR mouse at 15 mg/kg, po measured upto 24 hrs by LC-MS/MS analysis; type: ADME, organism-based; design: dose 15 mg/kg, route oral; settings: in vivo
[31] = Half-life in ICR mouse at 5 mg/kg, iv measured upto 24 hrs by LC-MS/MS analysis; type: ADME, organism-based; settings: in vivo
[32] = target: T1, Bromodomain-containing protein 2; assay: Binding affinity to human recombinant BRD2 BD1 (72 to 205 residues) by fluorescence polarization assay
Target sequence in this assay (P25440 whole entry, the tested form may be a part, canonical isoform): as the sequence (P25440 whole entry, looked up, the tested form may be a part, canonical isoform) above

[33] = target: T3, Bromodomain-containing protein 3; assay: Binding affinity to human partial length BRD3 BD2 (G306 to P416 residues) expressed in bacterial expression system by bromoscan assay
Target sequence in this assay (Q15059 whole entry, the tested form may be a part): as the sequence (Q15059 whole entry, the tested form may be a part) above

[34] = target: T3, Bromodomain-containing protein 3; assay: Binding affinity to human recombinant BRD3 BD2 (306 to 417 residues) by fluorescence polarization assay
Target sequence in this assay (Q15059 whole entry, the tested form may be a part): as above

[35] = target: T1, Bromodomain-containing protein 2; assay: Binding affinity to human recombinant BRD2 BD2 (349 to 460 residues) by fluorescence polarization assay
Target sequence in this assay (P25440 whole entry, the tested form may be a part, canonical isoform): as the sequence (P25440 whole entry, looked up, the tested form may be a part, canonical isoform) above

MV4-11 [36] = assay: Antitumour activity against human MV4-11 cells xenografted in BALB/c nu/nu mouse assessed as tumour growth inhibition at 60 mg/kg, po via gavage administered once daily for 21 days and measured every 2 to 3 days by vernier caliper method relative to control; type: functional; settings: MV4-11, po, read-out: GI
[37] = target: T4, Bromodomain testis-specific protein; assay: Selectivity ratio Kd for human partial length BRDT bromodomain 1 isoform b (N21 to E137 residues) expressed in bacterial expression system to Kd for human partial length BRDT bromodomain 2 isoform b (K250 to E382 residues) expressed in bacterial expression system
MV4-11 [38] = assay: Antitumour activity against human MV4-11 cells xenografted in BALB/c nu/nu mouse assessed as upregulation of p21 expression level in tumor tissue at 150 mg/kg, po administered via gavage as a single dose measured after 6 hrs by western blot analysis; type: functional
MV4-11 [39] = assay: Antitumour activity against human MV4-11 cells xenografted in BALB/c nu/nu mouse assessed as tumour growth inhibition administered via oral gavage once daily for 21 days and measured every 2 to 3 days by vernier caliper method; type: functional, cell-based
MV4-11 [40] = assay: Increase in p21 protein expression in human MV4-11 cells incubated for 24 hrs by western blot analysis; type: functional, cell-based
MM1.S = assay: Antiproliferative activity against human MM1S cells assessed as cell growth inhibition after 4 days by CCK8 assay; type: functional, cell-based; settings: 96 h
[41] = Clearance in ICR mouse at 5 mg/kg, iv measured upto 24 hrs by LC-MS/MS analysis; type: ADME, organism-based; settings: in vivo
HepG2 [42] = assay: Downregulation of […] in human HepG2 cells after 4 hrs by qRT-PCR analysis; type: functional, cell-based
[43] = target: T2, Bromodomain-containing protein 4; assay: Binding affinity to human partial length BRD4 BD1 isoform long (N44 to E168 residues) expressed in bacterial expression system by bromoscan assay
HepG2 [44] = assay: Downregulation of ARID5B in human HepG2 cells after 4 hrs by qRT-PCR analysis; type: functional, cell-based
[45] = Oral bioavailability in ICR mouse at 15 mg/kg measured upto 24 hrs by LC-MS/MS analysis; type: ADME, organism-based; settings: in vivo
[46] = target: T3, Bromodomain-containing protein 3; assay: Selectivity index, ratio of Ki for human recombinant BRD3 BD1 (24 to 144 residues) to Ki for human recombinant BRD3 BD2 (306 to 417 residues)
Target sequence in this assay (Q15059 2-726 limits assumed): as the sequence (Q15059 2-726 limits assumed) above

In the case of `CCNC(=O)C[C@@H]1N=C(c2ccc(Cl)cc2)c2cc(OC)ccc2-n2c(C)nnc21` [MOLIBRESIB], the Activity [1] is reported as 11%.
In the case of `Cc1nnc2n1-c1ccc(-c3cnn(C)c3)cc1[C@H](Nc1ccc(Cl)cc1)CC2`, the Selectivity ratio [2] is reported as 38, the Ki [3] is reported as 80 nM and the Activity (MV4-11 [4]) is reported as “Dose-dependent effect”. The Ki [5] was 7.3 nM, the Kd [6] was 3.5 nM and the inhibition (MV4-11 [7]) was “Dose-dependent effect”. The Selectivity ratio [8] was 5, the IC50 (MV4-11 [9]) was 27 nM and the Kd [10] was 3 nM. For the same compound, the inhibition in vivo at 150 mg/kg (MV4-11 [11]) was 67%, the inhibition (MV4-11 [12]) was “Dose-dependent effect” and the Ki [13] was 77.9 nM. It also gave a Vd [14] of 0.94 L/kg, a half-life [15] of 57 min and a Kd [16] of 64 nM. For the same compound, the Kd [17] was 45 nM, the inhibition in vivo at 150 mg/kg (MV4-11 [18]) was 30% and the Cmax [19] was 5420 ng/mL. For the same compound, the inhibition in vivo at 150 mg/kg (MV4-11 [20]) was 43%, the inhibition (HepG2 [21]) was “Dose-dependent effect” and the Kd [22] was 12 nM. For the same compound, the Kd [23] was 1.2 nM, the inhibition in vivo at 100 mg/kg (MV4-11 [24]) was 58% and the AUC(0-t) at 24 h [25] was 5890 ng·h/mL. For the same compound, the Activity [26] was 7%, the Selectivity ratio [27] was 7 and the AUC(0-t) at 24 h [28] was 3320 ng·h/mL. For the same compound, the inhibition in vivo at 150 mg/kg (MV4-11 [29]) was 18%, the Cmax [30] was 2210 ng/mL and the half-life [31] was 34.8 min. It also gave a Ki [32] of 95.5 nM, a Kd [33] of 2.6 nM and a Ki [34] of 5.3 nM. The Ki [35] was 3.1 nM, the inhibition in vivo at 60 mg/kg (MV4-11 [36]) was 47% and the Selectivity ratio [37] was 21. The Activity (MV4-11 [38]) was 46%, the inhibition (MV4-11 [39]) was “Dose-dependent effect” and the Activity (MV4-11 [40]) was “Dose-dependent effect”. For the same compound, the IC50 (MM1.S) was 16.7 nM, the clearance [41] was 25 mL/min/kg and the inhibition (HepG2 [42]) was “Dose-dependent effect”. The Kd [43] was 26 nM, the inhibition (HepG2 [44]) was “Dose-dependent effect” and the bioavailability [45] was 59.1%. It also gave a Ratio Ki [46] of 15.
